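Test compounds were applied to cells in 96-well plates for 48 hours at 5 doses. GI50: concentration for 50% inhibition of growth.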 Active and inactive are the calls of the source. Rule as the data show it: active = GI50 up to about 1.1 µM and inactive = higher.
Columns and labels:
Assay in all cases: inhibition of tumour cell growth, NCI panel, 48 h
[1] = tested on: 786-0
[2] = tested on: A549
[3] = tested on: ACHN
[4] = tested on: EKVX
[5] = tested on: HCC 2998
[6] = tested on: HCT-116
[7] = tested on: HL-60
[8] = tested on: K562
[9] = tested on: KM12
[10] = tested on: LOX IMVI
[11] = tested on: MOLT-4
[12] = tested on: NCI-H522
[13] = tested on: OVCAR-4
[14] = tested on: OVCAR-5
[15] = tested on: RXF 393
[16] = tested on: SK-MEL-28
[17] = tested on: SK-MEL-2
[18] = tested on: SN12C
[19] = tested on: SR
[20] = tested on: UACC-62

| SMILES | GI50 [1] | GI50 [2] | GI50 [3] | GI50 [4] | GI50 [5] | GI50 [6] | GI50 [7] | GI50 [8] | GI50 [9] | GI50 [10] | GI50 [11] | GI50 [12] | GI50 [13] | GI50 [14] | GI50 [15] | GI50 [16] | GI50 [17] | GI50 [18] | GI50 [19] | GI50 [20] |
| --- | --- | --- | --- | --- | --- | --- | --- | --- | --- | --- | --- | --- | --- | --- | --- | --- | --- | --- | --- | --- |
| C#C[C@]1(O)CC[C@H]2[C@@H]3CCC4=C/C(=N\OCCN5CCCCC5)CC[C@]4(C)[C@H]3CC[C@@]21C | 3.63 µM (inactive) | 7.08 µM (inactive) | 8.3 µM (inactive) | 8.15 µM (inactive) | 12.8 µM (inactive) | 4.31 µM (inactive) | 3.19 µM (inactive) | 1.65 µM (inactive) | 3.44 µM (inactive) | 3.58 µM (inactive) | 3.9 µM (inactive) | 2.47 µM (inactive) | 13.6 µM (inactive) | 13.5 µM (inactive) | 2.86 µM (inactive) | 8.13 µM (inactive) | 2.77 µM (inactive) | 6.89 µM (inactive) | 1.48 µM (inactive) | 3.32 µM (inactive) |
| C/C(CC(=O)Nc1ccc(C)c(C)c1)=N\N(c1ccccc1)c1ccccc1 | 99.1 µM (inactive) | > 100 µM (inactive) | 58.9 µM (inactive) | > 100 µM (inactive) | > 100 µM (inactive) | 43.4 µM (inactive) | 88.1 µM (inactive) | 26.2 µM (inactive) | > 100 µM (inactive) | 36.1 µM (inactive) | 62.5 µM (inactive) | 15.2 µM (inactive) | 43.4 µM (inactive) | > 100 µM (inactive) | 63.2 µM (inactive) | 68.1 µM (inactive) | 55.6 µM (inactive) | 42.9 µM (inactive) | 22.4 µM (inactive) | 21.6 µM (inactive) |
| CCCCCC[C@H]1C(=O)O[C@H](C)[C@H](NC(=O)c2cccc(NC=O)c2OC)C(=O)O[C@@H](C)[C@@H]1OC(=O)C(C)CC.CCCCCC[C@H]1C(=O)O[C@H](C)[C@H](NC(=O)c2cccc(NC=O)c2OC)C(=O)O[C@@H](C)[C@@H]1OC(=O)CC(C)C (stereo not given in full) | 18.6 µM (inactive) | 5.9 µM (inactive) | 5.83 µM (inactive) | 7.62 µM (inactive) | 89.7 µM (inactive) | 10.1 µM (inactive) | 4.53 µM (inactive) | 7.85 µM (inactive) | 18.8 µM (inactive) | 25.9 µM (inactive) | 6.65 µM (inactive) | 12.2 µM (inactive) | 5.41 µM (inactive) | > 100 µM (inactive) | > 100 µM (inactive) | > 100 µM (inactive) | 25.6 µM (inactive) | 29.6 µM (inactive) | 5.82 µM (inactive) | 8.49 µM (inactive) |
| CCCCCCCCCCCCCCCC(=O)OCC1OC(OC)C2NP(=O)(N(CCCl)CCCl)OC1C2O (stereo not given) | 0.44 µM (active) | 6.11 µM (inactive) | 0.953 µM (active) | 22 µM (inactive) | 2.54 µM (inactive) | 3.3 µM (inactive) | 0.117 µM (active) | 2.36 µM (inactive) | 16.3 µM (inactive) | 1.28 µM (inactive) | 0.0288 µM (active) | 0.916 µM (active) | 8.51 µM (inactive) | 20.8 µM (inactive) | 1.68 µM (inactive) | 22.2 µM (inactive) | 8.3 µM (inactive) | 1.05 µM (active) | 0.0177 µM (active) | 1.23 µM (inactive) |
| CC(=O)O[C@H]1[C@@H](N2CCOCC2)C[C@H]2[C@@H]3CC=C4C[C@@H](N5CCCC5)CC[C@]4(C)[C@H]3CC[C@@]21C | > 100 µM (inactive) | > 100 µM (inactive) | > 100 µM (inactive) | > 100 µM (inactive) | 48.8 µM (inactive) | 65.8 µM (inactive) | 56.4 µM (inactive) | 24 µM (inactive) | > 100 µM (inactive) | > 100 µM (inactive) | > 100 µM (inactive) | > 100 µM (inactive) | > 100 µM (inactive) | > 100 µM (inactive) | > 100 µM (inactive) | > 100 µM (inactive) | > 100 µM (inactive) | > 100 µM (inactive) | 49.7 µM (inactive) | > 100 µM (inactive) |
| CC[S+]1C2=C(CC(C)(C)CC2=O)[N-]c2ccccc21 (stereo not given) | > 100 µM (inactive) | > 100 µM (inactive) | > 100 µM (inactive) | > 100 µM (inactive) | > 100 µM (inactive) | > 100 µM (inactive) | > 100 µM (inactive) | > 100 µM (inactive) | > 100 µM (inactive) | > 100 µM (inactive) | > 100 µM (inactive) | > 100 µM (inactive) | > 100 µM (inactive) | > 100 µM (inactive) | > 100 µM (inactive) | > 100 µM (inactive) | > 100 µM (inactive) | > 100 µM (inactive) | > 100 µM (inactive) | > 100 µM (inactive) |
| Cc1c[n+]2c3ccccc3c3ccccc3c2s1.[O-][Cl+3]([O-])([O-])[O-] | 3.37 µM (inactive) | 4.01 µM (inactive) | 42.6 µM (inactive) | 4.89 µM (inactive) | 3.2 µM (inactive) | 6.37 µM (inactive) | 14.2 µM (inactive) | 4.29 µM (inactive) | 1.07 µM (active) | 15.2 µM (inactive) | 2.03 µM (inactive) | 1.73 µM (inactive) | 8.73 µM (inactive) | 1.77 µM (inactive) | 0.043 µM (active) | 2.25 µM (inactive) | 12.4 µM (inactive) | 2.61 µM (inactive) | 3.33 µM (inactive) | 14.1 µM (inactive) |
| CC(C)(C)OC(=O)NCC(=O)N(CCc1ccc(Cl)c(Cl)c1)CCN1CCCC1 | 14 µM (inactive) | 17.7 µM (inactive) | 19.5 µM (inactive) | 21.7 µM (inactive) | 5.14 µM (inactive) | 13.7 µM (inactive) | 12.1 µM (inactive) | 8.11 µM (inactive) | 16.3 µM (inactive) | 14.6 µM (inactive) | 8.41 µM (inactive) | 14.5 µM (inactive) | 21.2 µM (inactive) | 18.9 µM (inactive) | 14.9 µM (inactive) | 13 µM (inactive) | 16.9 µM (inactive) | 17.3 µM (inactive) | 14.5 µM (inactive) | 17.4 µM (inactive) |
